Assay results from ChEMBL document CHEMBL6134930, “Discovery of AB801, a Potent and Selective Inhibitor of AXL Receptor Tyrosine Kinase for Use in Cancer Therapy” (J Med Chem, 2025).

Assays:
[1] = target: T1, Tyrosine-protein kinase receptor UFO (Homo sapiens, UniProt P30530); assay: Inhibition of human AXL measured after 150 mins by ATP-competitive HTRF based biochemical assay
T1 sequence (P30530 whole entry): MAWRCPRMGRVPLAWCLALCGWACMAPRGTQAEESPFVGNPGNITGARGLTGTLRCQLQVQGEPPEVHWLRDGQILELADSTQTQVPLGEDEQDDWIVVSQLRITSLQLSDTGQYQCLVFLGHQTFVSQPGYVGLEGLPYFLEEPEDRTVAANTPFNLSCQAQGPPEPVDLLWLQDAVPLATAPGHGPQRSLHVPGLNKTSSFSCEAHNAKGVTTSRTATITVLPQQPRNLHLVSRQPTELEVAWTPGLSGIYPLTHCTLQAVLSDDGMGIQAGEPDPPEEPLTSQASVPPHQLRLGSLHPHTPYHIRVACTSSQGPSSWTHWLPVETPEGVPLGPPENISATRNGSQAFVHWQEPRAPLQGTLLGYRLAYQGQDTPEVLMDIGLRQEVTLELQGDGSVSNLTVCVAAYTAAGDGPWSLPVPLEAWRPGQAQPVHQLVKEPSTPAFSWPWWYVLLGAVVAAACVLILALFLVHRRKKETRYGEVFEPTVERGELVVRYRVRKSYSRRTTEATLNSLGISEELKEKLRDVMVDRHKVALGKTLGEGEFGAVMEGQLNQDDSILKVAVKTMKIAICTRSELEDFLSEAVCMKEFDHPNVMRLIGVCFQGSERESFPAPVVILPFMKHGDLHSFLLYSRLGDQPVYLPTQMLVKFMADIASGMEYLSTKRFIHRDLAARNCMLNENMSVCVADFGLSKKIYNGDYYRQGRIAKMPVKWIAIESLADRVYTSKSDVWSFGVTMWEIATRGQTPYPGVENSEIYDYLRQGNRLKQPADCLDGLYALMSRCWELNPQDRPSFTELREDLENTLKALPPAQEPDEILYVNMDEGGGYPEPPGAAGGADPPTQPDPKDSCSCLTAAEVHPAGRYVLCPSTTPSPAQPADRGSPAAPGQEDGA

[2] = Metabolic stability in rat hepatocytes assessed as intrinsic clearance measured per 10^6 cells; format: ADME, cell-based, Hepatocyte; conditions: read-out: CLH
[3] = target: T1, Tyrosine-protein kinase receptor UFO; assay: Inhibition of autophosphorylation AXL (unknown origin) expressed in HEK293 cells assessed as NanoLuc activity associated with phosphorylated proteins measured after 1 hr incubation by intracellular pAXL-ELISA; format: cell-based
[4] = Metabolic stability in human hepatocytes assessed as intrinsic clearance measured per 10^6 cells; format: ADME, cell-based, Hepatocyte; conditions: read-out: CLH
[5] = AUCinf in Sprague-Dawley rat at 2 mg/kg, po measured up to 8 hrs by LC-MS/MS analysis; format: ADME, organism-based; conditions: in vivo
[6] = Efflux ratio in human Caco-2 cells; format: ADME, cell-based
[7] = target: T1, Tyrosine-protein kinase receptor UFO; assay: Binding affinity to AXL (unknown origin) expressed in HEK293 cells transfected with Nano-Luc fusion vector assessed as dissociation constant by measuring decrease in BRET signal preincubated for 1 hr followed by K-5 NanoBRET tracer addition incubated for 2 hrs; format: cell-based
[8] = Clearance in Sprague-Dawley rat at 0.5 mg/kg, iv measured up to 24 hrs by LC-MS/MS analysis; format: ADME, organism-based; conditions: in vivo
hERG (KCNH2) = hERG (KCNH2) (Homo sapiens, UniProt Q12809); assay: Inhibition of hERG at 10 uM by high throughput cell based patch clamp assay; format: toxicity
[9] = Apparent permeability of compound from apical to basolateral side in human Caco-2 cells; format: ADME, cell-based; conditions: read-out: permeability

Sequence of hERG (KCNH2) (Q12809 whole entry): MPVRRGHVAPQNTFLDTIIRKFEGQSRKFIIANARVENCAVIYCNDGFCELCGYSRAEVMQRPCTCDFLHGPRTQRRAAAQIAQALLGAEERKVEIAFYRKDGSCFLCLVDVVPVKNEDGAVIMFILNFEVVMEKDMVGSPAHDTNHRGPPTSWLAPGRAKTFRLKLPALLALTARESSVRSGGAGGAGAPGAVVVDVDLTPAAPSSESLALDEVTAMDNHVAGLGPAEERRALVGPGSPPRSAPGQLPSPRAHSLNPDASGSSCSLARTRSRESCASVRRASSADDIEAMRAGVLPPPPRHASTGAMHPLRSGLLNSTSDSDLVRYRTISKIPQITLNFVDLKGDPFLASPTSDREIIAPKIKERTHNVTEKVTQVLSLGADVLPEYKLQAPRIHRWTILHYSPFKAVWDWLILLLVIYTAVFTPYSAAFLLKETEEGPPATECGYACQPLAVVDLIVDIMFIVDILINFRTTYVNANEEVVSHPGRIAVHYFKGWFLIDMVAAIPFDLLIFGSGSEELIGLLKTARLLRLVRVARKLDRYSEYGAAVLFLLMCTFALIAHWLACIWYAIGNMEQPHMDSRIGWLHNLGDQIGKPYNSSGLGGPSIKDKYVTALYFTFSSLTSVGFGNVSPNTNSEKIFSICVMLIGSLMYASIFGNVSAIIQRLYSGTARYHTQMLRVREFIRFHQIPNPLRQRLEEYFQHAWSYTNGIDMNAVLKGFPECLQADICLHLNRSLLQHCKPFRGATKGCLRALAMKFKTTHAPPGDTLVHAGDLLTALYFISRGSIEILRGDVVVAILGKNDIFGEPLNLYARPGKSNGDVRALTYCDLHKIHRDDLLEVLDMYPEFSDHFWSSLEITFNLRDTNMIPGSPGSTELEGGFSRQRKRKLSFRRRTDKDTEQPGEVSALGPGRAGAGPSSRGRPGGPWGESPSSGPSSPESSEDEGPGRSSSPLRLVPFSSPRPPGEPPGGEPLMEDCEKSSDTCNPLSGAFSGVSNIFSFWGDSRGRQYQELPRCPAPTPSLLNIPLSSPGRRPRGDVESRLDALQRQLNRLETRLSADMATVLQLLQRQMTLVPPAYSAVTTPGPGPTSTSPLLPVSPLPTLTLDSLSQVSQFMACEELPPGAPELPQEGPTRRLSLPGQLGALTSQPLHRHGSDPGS

Row | Structure (SMILES) | IC50 [1] [nM] | hepatocyte CLint [2] [µL/min/1e6 cells] | IC50 [3] [nM] | hepatocyte CLint [4] [µL/min/1e6 cells] | AUC(0-inf) [5] [ng·h/mL] | efflux ratio [6] | Kd [7] [nM] | clearance [8] [mL/min/kg] | inhibition at 10 µM (hERG (KCNH2)) [%] | Papp A→B [9] [×10⁻⁶ cm/s]
1 | CCc1cccnc1-c1ccc(-c2n[nH]c3ncc(-c4ccc5c(c4)CC[C@@H](N4C6COCC4C6)CC5)cc23)cc1 | 1.4 | 30 | 190 | 6.3 |  |  |  |  |  | 
2 | Cc1cccnc1-c1ccc(-c2n[nH]c3ncc(-c4ccc5c(c4)CC[C@@H](N4C[C@@H]6C[C@H]4CO6)CC5)cc23)cc1 | 1.8 | 13 | 57 | < 2.7 |  |  |  |  |  | 
3 | Cn1ncnc1-c1ccc(-c2n[nH]c3ncc(-c4ccc5c(c4)CC[C@@H](N4C6COCC4C6)CC5)cc23)cc1 | 2.7 | 5 |  | < 2.7 | 410 | 5.7 | 7.1 |  |  | 
4 | c1cc2c(cc1-c1cnc3[nH]nc(-c4ccc(N5C[C@@H]6C[C@H]5CO6)cc4)c3c1)CC[C@@H](N1C3COCC1C3)CC2 | 46 |  |  |  |  |  | 140 |  |  | 
5 | O=C1OCCN1c1ccc(-c2n[nH]c3ncc(-c4ccc5c(c4)CC[C@@H](N4C6COCC4C6)CC5)cc23)cc1 | 15 | 4.3 | 390 | < 2.7 | 1500 | 3.3 | 27 | 8.17 | 44 | 8
6 | Cc1cccnc1-c1ccc(-c2n[nH]c3ncc(-c4ccc5c(c4)CC[C@@](C)(N4CCC[C@H]4C)CC5)cc23)cc1 | 0.75 | < 2.7 | 13 | < 2.7 | 380 |  |  |  |  | 
7 | Cc1cccnc1-c1ccc(-c2n[nH]c3ncc(-c4ccc5c(c4)CC[C@@H](N[C@H]4CCCOC4)CC5)cc23)cc1 | 2.6 | 12 | 100 | 5.8 |  |  |  |  |  | 
8 | CN(C)S(=O)(=O)c1ccc(-c2n[nH]c3ncc(-c4ccc5c(c4)CC[C@@H](N4C6COCC4C6)CC5)cc23)cc1 | 2.6 | 110 |  | 36 |  |  | 15 |  |  | 
9 | O=S1(=O)CCCN1c1ccc(-c2n[nH]c3ncc(-c4ccc5c(c4)CC[C@@H](N4C6COCC4C6)CC5)cc23)cc1 | 13 | < 2.7 |  | < 2.7 | 39 |  | 51 |  |  | 
10 | Cn1ccnc1-c1ccc(-c2n[nH]c3ncc(-c4ccc5c(c4)CC[C@@H](N4C6COCC4C6)CC5)cc23)cc1 | 0.63 | 16 |  | < 2.7 | 160 | 18 | 1.9 |  |  | 
11 | c1cc2c(cc1-c1cnc3[nH]nc(-c4ccc(N5C[C@H]6C[C@@H]5CO6)cc4)c3c1)CC[C@@H](N1C3COCC1C3)CC2 | 28 | 12 |  | 7.2 | 2900 | 1.2 | 130 | 38.3 |  | 6.7
12 | c1cc2c(cc1-c1cnc3[nH]nc(-c4ccc5c(c4)OCCO5)c3c1)CCC(N1C3COCC1C3)CC2 (racemic) | 17 | 46 |  | 16 |  |  | 69 |  |  | 
13 | O=C1CCCN1c1ccc(-c2n[nH]c3ncc(-c4ccc5c(c4)CC[C@@H](N4C6COCC4C6)CC5)cc23)cc1 | 60 |  |  |  |  |  | 89 |  |  | 
14 | CS(=O)(=O)c1ccc(-c2n[nH]c3ncc(-c4ccc5c(c4)CC[C@@H](N4C6COCC4C6)CC5)cc23)cc1 | 3.8 | 9.8 |  | 5.8 | 120 |  | 13 |  |  | 
15 | FC(F)(F)c1cccnc1-c1ccc(-c2n[nH]c3ncc(-c4ccc5c(c4)CC[C@@H](N4C6COCC4C6)CC5)cc23)cc1 | 8.2 | < 2.7 | 730 | < 2.7 |  |  |  |  |  | 
16 | COc1cccnc1-c1ccc(-c2n[nH]c3ncc(-c4ccc5c(c4)CC[C@@H](N4C6COCC4C6)CC5)cc23)cc1 | 2.4 | 16 | 120 | 13 |  |  |  |  |  | 
17 | Cn1nccc1-c1ccc(-c2n[nH]c3ncc(-c4ccc5c(c4)CC[C@@H](N4C6COCC4C6)CC5)cc23)cc1 | 3.9 |  |  |  |  |  | 31 |  |  | 
18 | CO[C@H]1C[C@@H](N[C@H]2CCc3ccc(-c4cnc5[nH]nc(-c6ccc(-c7ncccc7C)cc6)c5c4)cc3CC2)C1 | 3.4 | 6.4 | 310 | < 2.7 |  |  |  |  |  | 
19 | N#Cc1cccnc1-c1ccc(-c2n[nH]c3ncc(-c4ccc5c(c4)CC[C@@H](N4C6COCC4C6)CC5)cc23)cc1 | 6 | < 2.7 | 220 | < 2.7 |  |  |  |  |  | 
20 | COCCOc1cccnc1-c1ccc(-c2n[nH]c3ncc(-c4ccc5c(c4)CC[C@@H](N4C6COCC4C6)CC5)cc23)cc1 | 1.3 | 16 | 33 | 3.2 |  |  |  |  |  | 
21 | Cn1nncc1-c1ccc(-c2n[nH]c3ncc(-c4ccc5c(c4)CC[C@@H](N4C6COCC4C6)CC5)cc23)cc1 | 8.9 |  |  |  |  |  | 91 |  |  | 
22 | COCCOc1ccc(-c2n[nH]c3ncc(-c4ccc5c(c4)CC[C@@H](N4C6COCC4C6)CC5)cc23)cc1 | 12 | 9.1 |  | 14 | 4200 | 0.93 | 66 | 15 | 84 | 17
23 | CP(C)(=O)c1ccc(-c2n[nH]c3ncc(-c4ccc5c(c4)CCC(N4C6COCC4C6)CC5)cc23)cc1 (racemic) |  |  |  |  |  |  | 170 |  |  | 
24 | c1cncc(-c2ccc(-c3n[nH]c4ncc(-c5ccc6c(c5)CC[C@@H](N5C7COCC5C7)CC6)cc34)cc2)c1 | 19 |  |  |  |  |  | 410 |  |  | 
25 | c1ccc(-c2ccc(-c3n[nH]c4ncc(-c5ccc6c(c5)CC[C@@H](N5C7COCC5C7)CC6)cc34)cc2)nc1 | 5 | < 2.7 | 1700 | < 2.7 | 2800 |  | 75 |  |  | 
26 | c1cc2c(cc1-c1cnc3[nH]nc(-c4ccc(N5CCOCC5)cc4)c3c1)CC[C@@H](N1C3COCC1C3)CC2 | 66 |  |  |  |  |  | 190 |  |  | 
27 | c1cc(-c2n[nH]c3ncc(-c4ccc5c(c4)CCC(N4C6COCC4C6)CC5)cc23)ccn1 (racemic) | 20 | 13 |  | 8.7 | 130 |  | 38 |  |  | 
28 | c1cc2c(cc1-c1cnc3[nH]nc(-c4ccc(N5CC6(COC6)C5)cc4)c3c1)CC[C@@H](N1C3COCC1C3)CC2 | 27 |  |  |  |  |  | 120 |  |  | 
29 | Cn1cc(-c2ccc(-c3n[nH]c4ncc(-c5ccc6c(c5)CCC(N5C7COCC5C7)CC6)cc34)cc2)cn1 (racemic) | 34 |  |  |  |  |  | 2200 |  |  | 
